Measurements taken from the NIST ThermoML archive (doi:10.1021/je034102r).

Test: molar heat capacity at saturation pressure
Settings: Small (less than 1 g) adiabatic calorimetry

CCCCn1cc[n+](C)c1.F[P-](F)(F)(F)(F)F [1-butyl-3-methylimidazolium hexafluorophosphate]
molar heat capacity [J/K/mol]
Settings	Crystal	Glass
5 K	1.007	1.946
5.09 K	–	2.049
5.13 K	1.065	–
5.36 K	–	2.336
5.41 K	1.231	–
5.59 K	–	2.627
5.67 K	1.405	–
5.85 K	–	2.997
5.97 K	1.625	–
6.14 K	–	3.411
6.29 K	1.927	–
6.47 K	–	3.839
6.6 K	2.264	–
6.82 K	–	4.454
6.91 K	2.566	–
7.15 K	–	4.943
7.23 K	2.994	–
7.49 K	–	5.596
7.58 K	3.435	–
7.84 K	–	6.275
7.92 K	3.848	–
8.21 K	–	6.958
8.28 K	4.395	–
8.61 K	–	7.772
8.66 K	4.99	–
9 K	–	8.63
9.07 K	5.739	–
9.41 K	–	9.587
9.49 K	6.479	–
9.82 K	–	10.46
9.92 K	7.352	–
10 K	7.487	10.93
10.27 K	–	11.64
10.35 K	8.195	–
10.75 K	9.005	–
10.76 K	–	12.74
11.18 K	10.04	–
11.23 K	–	14.01
11.74 K	11.29	15.2
12.29 K	–	16.65
12.32 K	12.57	–
12.81 K	–	18.03
12.92 K	14.08	–
13.36 K	–	19.55
13.56 K	15.72	–
13.99 K	–	21.2
14.2 K	17.26	–
14.65 K	–	23.01
14.85 K	19.06	–
15 K	19.41	23.95
15.35 K	–	24.94
15.51 K	20.76	–
16.07 K	–	26.85
16.24 K	22.77	–
16.81 K	–	28.88
17 K	24.84	–
17.63 K	–	31.14
17.78 K	26.97	–
18.5 K	–	33.53
18.66 K	29.5	–
19.36 K	–	35.93
19.54 K	32.1	–
20 K	33.34	37.71
20.17 K	–	38.13
20.45 K	34.73	–
21.05 K	–	40.62
21.38 K	37.23	–
22.07 K	–	43.51
22.32 K	39.8	–
23.08 K	–	46.05
23.31 K	42.57	–
24.15 K	–	49.07
24.37 K	45.56	–
25 K	47.15	51.23
25.25 K	–	51.82
25.51 K	48.5	–
26.28 K	–	54.6
26.64 K	51.23	–
27.38 K	–	57.25
27.83 K	54.25	–
28.63 K	–	60.1
29.06 K	57.36	–
29.99 K	–	63.37
30 K	59.6	63.41
30.21 K	60.16	–
31.43 K	–	66.52
31.51 K	63.15	–
32.95 K	–	70.07
32.97 K	66.37	–
34.47 K	69.5	–
34.52 K	–	73.45
35 K	70.66	74.31
36.07 K	72.74	–
36.17 K	–	76.76
37.71 K	76.12	–
37.88 K	–	79.79
39.38 K	79.31	–
39.66 K	–	83.48
40 K	80.48	83.89
41.07 K	82.46	–
41.55 K	–	86.89
42.76 K	85.47	–
43.54 K	–	90.3
44.47 K	88.38	–
45 K	89.21	92.46
45.53 K	–	93.29
46.22 K	91.38	–
47.48 K	–	96.53
48 K	93.87	–
49.44 K	–	99.69
49.81 K	96.36	–
50 K	96.95	100.6
51.38 K	–	102.7
51.62 K	99.36	–
53.34 K	–	105.7
53.48 K	101.9	–
55.43 K	–	108.8
55.49 K	104.4	–
57.6 K	–	111.9
57.62 K	106.9	–
59.71 K	109.9	–
59.75 K	–	114.9
60 K	110.2	115.6
61.89 K	112.3	117.8
64.01 K	–	121.6
64.13 K	115.1	–
66.11 K	–	123.9
66.36 K	118.1	–
68.19 K	–	127.2
68.68 K	120.7	–
70 K	122	129.2
70.41 K	–	130
71.13 K	123.1	–
72.69 K	–	132.8
73.64 K	125.8	–
75.03 K	–	135.6
76.05 K	128.6	–
77.42 K	–	138.4
78.39 K	130.8	–
79.89 K	–	142.1
80 K	132.7	141.8
80.75 K	133.5	–
82.45 K	–	144.5
83.19 K	136	–
84.93 K	–	147.7
85.74 K	138.7	–
87.39 K	–	150.3
88.31 K	141.4	–
89.83 K	–	153.7
90 K	142.9	154.1
90.82 K	143.8	–
92.25 K	–	157.1
93.26 K	146.3	–
95.42 K	–	160.5
95.87 K	149.1	–
97.92 K	–	163.5
98.65 K	151.7	–
100 K	153.2	166
100.28 K	153.6	–
100.38 K	–	166.5
100.78 K	–	167.5
101.35 K	154.9	–
102.77 K	156.1	–
103.17 K	–	170
105.21 K	158.5	–
105.51 K	–	172.9
107.6 K	160.8	–
107.81 K	–	175.4
110 K	163.1	177.9
110.06 K	–	177.9
